In ChEMBL document CHEMBL3272271, “Folate antagonists. 13. 2,4-Diamino-6-](alpha,alpha,alpha-trifluoro-m-tolyl)thio]quinazoline and related 2,4-diamino-6-[(phenyl- and naphthyl)thio]quinazolines, a unique class of antimetabolites with extraordinary antimalarial and antibacterial effects” (J Med Chem, 1978):
Values after ≈ are worked out from the molar mass of the structure shown. Active and inactive are the calls of the source. The calls are words filed in the database; no cut-off is given here.

Key:
Enterococcus faecalis = experiment: Antibacterial activity against Streptococcus faecalis MGH-2 by gradient plate test; format: functional
Staphylococcus aureus [1] = experiment: Antibacterial activity against Staphylococcus aureus UC-96 by gradient plate test; format: functional
Staphylococcus aureus [2] = experiment: Antibacterial activity against drug-resistant Staphylococcus aureus S18713 by gradient plate test; format: functional
Pseudomonas aeruginosa = experiment: Antibacterial activity against Pseudomonas aeruginosa 28 by gradient plate test; format: functional
Escherichia coli = experiment: Antibacterial activity against Escherichia coli Vogel by gradient plate test; format: functional
Shigella sonnei = experiment: Antibacterial activity against Shigella sonnei C-10 by gradient plate test; format: functional
Plasmodium gallinaceum [3] = experiment: Antimalarial activity against sporozoite-induced Plasmodium gallinaceum infected in white leghorn chicken assessed as disease cure from parasite infection at 320 mg/kg, sc administered 72 hrs after infection; format: functional, organism-based; parameters: dose 320 mg/kg
Gallus gallus = experiment: Toxicity in sporozoite-induced Plasmodium gallinaceum infected white leghorn chicken assessed as mortality at 320 mg/kg, sc administered 72 hrs after infection measured up to 6 days; format: organism-based; parameters: dose 320 mg/kg, route subcutaneous; details: in vivo
Plasmodium gallinaceum [4] = experiment: Antimalarial activity against sporozoite-induced Plasmodium gallinaceum infected in white leghorn chicken assessed as disease cure from parasite infection at 160 mg/kg, sc administered 72 hrs after infection; format: functional, organism-based; parameters: dose 160 mg/kg
Plasmodium gallinaceum [5] = experiment: Antimalarial activity against sporozoite-induced Plasmodium gallinaceum infected in white leghorn chicken assessed as disease cure from parasite infection at 80 mg/kg, sc administered 72 hrs after infection; format: functional, organism-based; parameters: dose 80 mg/kg
Plasmodium gallinaceum [6] = experiment: Antimalarial activity against sporozoite-induced Plasmodium gallinaceum infected in white leghorn chicken assessed as disease cure from parasite infection at 40 mg/kg, sc administered 72 hrs after infection; format: functional, organism-based; parameters: dose 40 mg/kg
Plasmodium gallinaceum [7] = experiment: Antimalarial activity against sporozoite-induced Plasmodium gallinaceum infected in white leghorn chicken assessed as increase in mean survival days of host at 20 mg/kg, sc administered 72 hrs after infection relative to control; format: functional; details: route subcutaneous
Plasmodium gallinaceum [8] = experiment: Antimalarial activity against sporozoite-induced Plasmodium gallinaceum infected in white leghorn chicken assessed as disease cure from parasite infection at 20 mg/kg, sc administered 72 hrs after infection; format: functional, organism-based; parameters: dose 20 mg/kg
Plasmodium gallinaceum [9] = experiment: Antimalarial activity against sporozoite-induced Plasmodium gallinaceum infected in white leghorn chicken assessed as increase in mean survival days of host at 10 mg/kg, sc administered 72 hrs after infection relative to control; format: functional; details: route subcutaneous
Plasmodium gallinaceum [10] = experiment: Antimalarial activity against sporozoite-induced Plasmodium gallinaceum infected in white leghorn chicken assessed as disease cure from parasite infection at 10 mg/kg, sc administered 72 hrs after infection; format: functional, organism-based; parameters: dose 10 mg/kg
Plasmodium berghei [11] = experiment: Antimalarial activity against Plasmodium berghei infected in mouse assessed as increase in mean survival days of host at 10 mg/kg, sc administered 72 hrs after infection relative to control; format: functional; details: route subcutaneous
Plasmodium berghei [12] = experiment: Antimalarial activity against Plasmodium berghei infected in mouse assessed as increase in mean survival days of host at 5 mg/kg, sc administered 72 hrs after infection relative to control; format: functional; details: route subcutaneous
Plasmodium berghei [13] = experiment: Antimalarial activity against Plasmodium berghei infected in mouse assessed as increase in mean survival days of host at 2.5 mg/kg, sc administered 72 hrs after infection relative to control; format: functional; details: route subcutaneous
Plasmodium berghei [14] = experiment: Antimalarial activity against Plasmodium berghei infected in mouse assessed as increase in mean survival days of host at 1.25 mg/kg, sc administered 72 hrs after infection relative to control; format: functional; details: route subcutaneous
Plasmodium berghei [15] = experiment: Antimalarial activity against Plasmodium berghei infected in mouse assessed as disease cure from parasite infection at 640 mg/kg, sc administered 72 hrs after infection; format: functional, organism-based; parameters: dose 640 mg/kg
Plasmodium berghei [16] = experiment: Antimalarial activity against Plasmodium berghei infected in mouse assessed as disease cure from parasite infection at 320 mg/kg, sc administered 72 hrs after infection; format: functional, organism-based; parameters: dose 320 mg/kg
Plasmodium berghei [17] = experiment: Antimalarial activity against Plasmodium berghei infected in mouse assessed as disease cure from parasite infection at 160 mg/kg, sc administered 72 hrs after infection; format: functional, organism-based; parameters: dose 160 mg/kg
Plasmodium berghei [18] = experiment: Antimalarial activity against Plasmodium berghei infected in mouse assessed as disease cure from parasite infection at 80 mg/kg, sc administered 72 hrs after infection; format: functional, organism-based; parameters: dose 80 mg/kg
Plasmodium berghei [19] = experiment: Antimalarial activity against Plasmodium berghei infected in mouse assessed as disease cure from parasite infection at 40 mg/kg, sc administered 72 hrs after infection; format: functional, organism-based; parameters: dose 40 mg/kg
Plasmodium berghei [20] = experiment: Antimalarial activity against Plasmodium berghei infected in mouse assessed as disease cure from parasite infection at 20 mg/kg, sc administered 72 hrs after infection; format: functional, organism-based; parameters: dose 20 mg/kg
Plasmodium berghei [21] = experiment: Antimalarial activity against trophozoite-induced Plasmodium berghei infected in mouse assessed as daily dose required to suppression of 90% parasite infection administered with diet for 6 days; format: functional
Plasmodium berghei [22] = experiment: Ratio of quinine hydrochloride SD90 to compound SD90 for trophozoite-induced Plasmodium berghei infected in mouse assessed as daily dose required to suppression of 90% parasite infection administered with diet for 6 days; format: functional
Plasmodium falciparum [23] = experiment: Antimalarial activity against chloroquine-susceptible, pyrimethamine-resistant Plasmodium falciparum Malayan Camp infected in Aotus trivirgatus owl monkey model assessed as cure from parasite infection at >2.5 mg/kg, po qd for 7 days relative to control; format: functional
Plasmodium falciparum [24] = experiment: Antimalarial activity against pyrimethamine-sensitive Plasmodium falciparum Vietnam Oak Knoll infected in Aotus trivirgatus owl monkey model assessed as cure from parasite infection at 0.098 to 1.56 mg/kg, po qd for 7 days relative to control; format: functional; details: dose mg/kg 0.098-1.56
Plasmodium falciparum [25] = experiment: Antimalarial activity against pyrimethamine-sensitive Plasmodium falciparum Vietnam Oak Knoll infected in Aotus trivirgatus owl monkey model assessed as cure from parasite infection at 0.6 mg/kg, po qd for 7 days relative to control; format: functional
Plasmodium berghei [26] = experiment: Antimalarial activity against Plasmodium berghei infected in mouse assessed as increase in mean survival days of host at 40 mg/kg, sc administered 72 hrs after infection relative to control; format: functional; details: route subcutaneous
Plasmodium berghei [27] = experiment: Antimalarial activity against Plasmodium berghei infected in mouse assessed as increase in mean survival days of host at 20 mg/kg, sc administered 72 hrs after infection relative to control; format: functional; details: route subcutaneous
Plasmodium falciparum [28] = experiment: Antimalarial activity against chloroquine-susceptible, pyrimethamine-resistant Plasmodium falciparum Malayan Camp infected in Aotus trivirgatus owl monkey model assessed as cure from parasite infection at 0.39 to 5 mg/kg, po qd for 7 days relative to control; format: functional; details: dose mg/kg 0.39-5
Plasmodium gallinaceum [29] = experiment: Antimalarial activity against trophozoite-induced Plasmodium gallinaceum infected in white leghorn chicken assessed as increase in mean survival days of host at 160 mg/kg, sc administered 72 hrs after infection relative to control; format: functional; details: route subcutaneous
Plasmodium gallinaceum [30] = experiment: Antimalarial activity against trophozoite-induced Plasmodium gallinaceum infected in white leghorn chicken assessed as disease cure from parasite infection at 320 mg/kg, sc administered 72 hrs after infection; format: functional, organism-based; parameters: dose 320 mg/kg
Plasmodium gallinaceum [31] = experiment: Antimalarial activity against trophozoite-induced Plasmodium gallinaceum infected in white leghorn chicken assessed as disease cure from parasite infection at 160 mg/kg, sc administered 72 hrs after infection; format: functional, organism-based; parameters: dose 160 mg/kg
Plasmodium gallinaceum [32] = experiment: Antimalarial activity against trophozoite-induced Plasmodium gallinaceum infected in white leghorn chicken assessed as disease cure from parasite infection at 80 mg/kg, sc administered 72 hrs after infection; format: functional, organism-based; parameters: dose 80 mg/kg
Plasmodium berghei [33] = experiment: Antimalarial activity against Plasmodium berghei infected in mouse assessed as disease cure from parasite infection at 10 mg/kg, sc administered 72 hrs after infection; format: functional, organism-based; parameters: dose 10 mg/kg
Plasmodium gallinaceum [34] = experiment: Antimalarial activity against trophozoite-induced Plasmodium gallinaceum infected in white leghorn chicken assessed as increase in mean survival days of host at 80 mg/kg, sc administered 72 hrs after infection relative to control; format: functional; details: route subcutaneous
Plasmodium gallinaceum [35] = experiment: Antimalarial activity against trophozoite-induced Plasmodium gallinaceum infected in white leghorn chicken assessed as increase in mean survival days of host at 40 mg/kg, sc administered 72 hrs after infection relative to control; format: functional; details: route subcutaneous
Plasmodium gallinaceum [36] = experiment: Antimalarial activity against trophozoite-induced Plasmodium gallinaceum infected in white leghorn chicken assessed as increase in mean survival days of host at 20 mg/kg, sc administered 72 hrs after infection relative to control; format: functional; details: route subcutaneous
Plasmodium gallinaceum [37] = experiment: Antimalarial activity against trophozoite-induced Plasmodium gallinaceum infected in white leghorn chicken assessed as increase in mean survival days of host at 10 mg/kg, sc administered 72 hrs after infection relative to control; format: functional; details: route subcutaneous
Plasmodium gallinaceum [38] = experiment: Antimalarial activity against trophozoite-induced Plasmodium gallinaceum infected in white leghorn chicken assessed as increase in mean survival days of host at 5 mg/kg, sc administered 72 hrs after infection relative to control; format: functional; details: route subcutaneous
Plasmodium gallinaceum [39] = experiment: Antimalarial activity against trophozoite-induced Plasmodium gallinaceum infected in white leghorn chicken assessed as increase in mean survival days of host at 2.5 mg/kg, sc administered 72 hrs after infection relative to control; format: functional; details: route subcutaneous
Plasmodium gallinaceum [40] = experiment: Antimalarial activity against trophozoite-induced Plasmodium gallinaceum infected in white leghorn chicken assessed as increase in mean survival days of host at 1.25 mg/kg, sc administered 72 hrs after infection relative to control; format: functional; details: route subcutaneous
Plasmodium gallinaceum [41] = experiment: Antimalarial activity against trophozoite-induced Plasmodium gallinaceum infected in white leghorn chicken assessed as increase in mean survival days of host at 0.63 mg/kg, sc administered 72 hrs after infection relative to control; format: functional; details: route subcutaneous

Row | Compound | MIC (Enterococcus faecalis) | MIC (Staphylococcus aureus [1]) | MIC (Staphylococcus aureus [2]) | MIC (Pseudomonas aeruginosa) | Activity (Plasmodium gallinaceum [3]) | Activity (Plasmodium gallinaceum [4]) | Activity (Plasmodium gallinaceum [5]) | Activity (Plasmodium gallinaceum [6]) | Activity (Plasmodium gallinaceum [8]) | MST (Plasmodium gallinaceum [9]) | Activity (Plasmodium gallinaceum [10]) | MST (Plasmodium berghei [11]) | MST (Plasmodium berghei [12]) | MST (Plasmodium berghei [13]) | MST (Plasmodium berghei [14]) | Activity (Plasmodium berghei [15]) | Activity (Plasmodium berghei [16]) | Activity (Plasmodium berghei [17]) | Activity (Plasmodium berghei [18]) | Activity (Plasmodium berghei [19]) | other results
1 | COc1ccc(Sc2ccc3nc(N)nc(N)c3c2)cc1 | < 0.25 µg/mL | < 0.25 µg/mL | < 0.25 µg/mL | > 25 µg/mL | Active | Active | Active | Active | Active | 2.2 days | Active | 9.6 days | 4.8 days | 3.8 days | 2.2 days | Active | Active | Active | Active | Active | MIC (Escherichia coli): < 0.25 µg/mL; MIC (Shigella sonnei): 1.5 µg/mL (≈ 5.03 µM); Activity (Gallus gallus): Toxic; MST (Plasmodium gallinaceum [7]): 3.2 days; Activity (Plasmodium berghei [20]): Active; SD90 (Plasmodium berghei [21]): 1.2 mg/kg/day; Ratio (Plasmodium berghei [22]): 62
2 | Nc1nc(N)c2cc(Sc3cccc(C(F)(F)F)c3)ccc2n1 [WR-159412] |  |  |  |  | Active | Active | Active | Active | Active | 7.3 days | Active | 9.1 days | 8.7 days | 2.7 days | 0.5 days | Active | Active | Active | Active | Active | Activity (Plasmodium falciparum [23]): >50%; Activity (Plasmodium falciparum [24]): >50%; Activity (Plasmodium falciparum [25]): >50%; MST (Plasmodium berghei [26]): 14.9 days; MST (Plasmodium berghei [27]): 12.7 days; Activity (Plasmodium falciparum [28]): >50%; MST (Plasmodium gallinaceum [29]): 15.4 days
3 | Cc1ccc(Cl)cc1Sc1ccc2nc(N)nc(N)c2c1 | < 0.25 µg/mL | < 0.25 µg/mL | < 0.25 µg/mL | > 25 µg/mL | Active | Active | Active | Active | Active | 7 days | Active | 8.8 days | 9.5 days | 4.1 days | 2.7 days | Active | Active | Active | Active | Active | Activity (Plasmodium gallinaceum [30]): Active; Activity (Plasmodium gallinaceum [31]): Active; Activity (Plasmodium gallinaceum [32]): Active; MIC (Escherichia coli): < 0.25 µg/mL; MIC (Shigella sonnei): 1.5 µg/mL (≈ 4.73 µM); MST (Plasmodium berghei [26]): 25.7 days; MST (Plasmodium berghei [27]): 17.8 days; Activity (Plasmodium berghei [20]): Active; Activity (Plasmodium berghei [33]): Active; SD90 (Plasmodium berghei [21]): 0.43 mg/kg/day; Ratio (Plasmodium berghei [22]): 170; MST (Plasmodium gallinaceum [34]): 18 days; MST (Plasmodium gallinaceum [35]): 7.8 days; MST (Plasmodium gallinaceum [36]): 7.4 days; MST (Plasmodium gallinaceum [37]): 5.8 days; MST (Plasmodium gallinaceum [38]): 3.6 days; MST (Plasmodium gallinaceum [39]): 1.4 days; MST (Plasmodium gallinaceum [40]): 0 days; MST (Plasmodium gallinaceum [41]): 0 days
